{"source": "patent US20260209200A1", "about": "“SALTS OF A DIHYDROOROTATE DEHYDROGENASE (DHOD) INHIBITOR” (priority 2022, published 2026)", "key": {"in vivo [1]": {"assay": "in vivo", "settings": "rat, in vivo, po", "method": "(§1) Suspensions were stirred continuously prior to dose.\nA total of 27 male SD rats were used (n=3). 27 male SD rats assigned to the study were divided into 9 groups and a single type of formulated PP-001 salt was orally administered to each group of rats at dose level of 4 mg/kg (2 mL/kg dose volume). The diet was provided ad libitum throughout the in-life portion of the study, except for the fasting prior to dosing through 4 hours post dose. Drinking water was available daily ad libitum to all animals.\n(§2) Plasma samples were collected via the jugular vein cannulation into EDTA-K3 tubes at 0.25, 0.5, 1, 2, 4, 8, and 24 hours post-dose administration. For analytical batch of single oral administration, plasma concentrations of salts of PP-001 were determined using LC-MS/MS with a lower limit of quantitation of 1 ng/mL.\n(§3) The pharmacokinetic parameters of PP-001 salts were determined by non-compartmental analysis using WinNonlin Version 8.0 (Pharsight, Mountain View, CA). The area under the curve from the time of dosing to the last measurable concentration, AUC0-t, was calculated by the linear trapezoidal rule. The area under the concentration-time curve extrapolated to infinity, AUCinf, was calculated using a regression of the natural logarithm of the concentration values versus sampling time of the terminal slope (Lambda Z, k). This value is also used to calculate half-life (T1/2) as follows:\n(§4) The bioavailability was calculated as follows:\n(§5) [formula] • wherein PO is an oral administration and IV is an intravenous injection."}, "in vivo [2]": {"assay": "in vivo", "settings": "dog", "method": "as §1\nA total of 6 male beagle dogs were used (n=3). 6 male dogs assigned to the study were divided into 2 periods with 6 dogs per period and two dosing cycles separated by a 7-day washout period. The diet was provided ad libitum throughout the in-life portion of the study, except for the fasting prior to dosing through 4 hours post dose. Drinking water was available daily ad libitum to all animals. Formulated PP-001 salts were administered to male beagle dogs by oral administration at 4 mg/kg with dosed volume at 2 mL/kg.\nas §2, with “of 10” for “of 1”\nas §3, §4, §5"}, "[3]": {"assay": "Solubility of PP-001 free acid in supernatant of 10 mg/mL formulation in FaSSIF", "format": "physicochemical", "settings": "supernatant of 10 mg/mL formulation at 25° C. in FaSSIF after 120 min"}, "[4]": {"assay": "Kinetic solubility of PP-001 salts in FaSSIF (HPLC)", "format": "physicochemical", "settings": "4 mL FaSSIF, 25° C., target 2 mg/mL", "method": "Approximately 8 mg (calculated as freebase) of each salt was weighed out into each glass vial and then 4 ml of FaSSIF was added (target concentration was 2 mg/mL). The sample was kept stirring on a magnetic stirrer at a speed of I 00 RPM under 25° C. Then at the time points of initial, 0.5 hr, 1 hr, 2 hrs and 24 hrs, 0.5 mL of sample solution was transferred into 1.5 mL centrifugation tube and centrifuged at 12,000 RPM for 10 min. The supernatant was diluted by 50% ACN suitable and analyzed by HPLC.\nAn HPLC method of testing solubility was performed as follows in Table A: […]"}, "[5]": {"assay": "Thermodynamic (equilibrium) solubility of PP-001 salts in FaSSIF", "format": "physicochemical", "settings": "3 mL FaSSIF, 37° C.; for Thermodynamic solubility: saturated (target 10 mg/mL), time point 2 hrs, pH 6.4 to 6.5", "method": "As the solid was completely dissolved, add more sample to keep it saturated. […] Then at the time point 2 hrs, 0.5 mL of sample solution was transferred into 1.5 mL centrifugation tube and centrifuged at 12,000 RPM for 10 min. The supernatant was diluted by 50% ACN suitable and analyzed by HPLC. The pH was tested after 24 hours."}}, "data": [{"compound": "O=C(Nc1c(F)c(F)c(-c2cccc(OC(F)(F)F)c2)c(F)c1F)c1ccsc1C(=O)O", "note": "[PP-001 free acid, 3-(2,3,5,6-tetrafluoro-3′-trifluoromethoxy-biphenyl-4-ylcarbamoyl)-thiophene-2-carboxylic acid]", "values": [{"measurement": "Increase in oral BA vs free acid in rats", "setting": "in vivo [1]; male, SD", "result": 1}, {"measurement": "bioavailability", "setting": "in vivo [1]; male, SD, 4 mg/kg", "result": 7.8, "unit": "%"}, {"measurement": "Increase in oral BA vs free acid in dogs", "setting": "in vivo [2]; male, beagle", "result": 1}, {"measurement": "bioavailability", "setting": "in vivo [2]; male, beagle, po, 4 mg/kg", "result": 23, "unit": "%"}, {"measurement": "solubility at 120 min", "setting": "[3]", "result": 1200, "unit": "µg/mL"}]}, {"compound": "Tromethamine", "values": [{"measurement": "Appearance after stirring for 24 hours", "setting": "[4]", "result": "clear solution"}, {"measurement": "Final pH", "setting": "[4]", "result": 6.51}, {"measurement": "Solubility at different time points, 0.5 h", "setting": "[4]; 0.5 h", "result": 1990, "unit": "µg/mL"}, {"measurement": "Solubility at different time points, 1 h", "setting": "[4]; 1 h", "result": 1950, "unit": "µg/mL"}, {"measurement": "Solubility at different time points, 2 h", "setting": "[4]; 2 h", "result": 1960, "unit": "µg/mL"}, {"measurement": "Solubility at different time points, 24 h", "setting": "[4]; 24 h", "result": 2020, "unit": "µg/mL"}, {"measurement": "Solubility at different time points, Initial", "setting": "[4]; initial", "result": 1720, "unit": "µg/mL"}, {"measurement": "Final pH", "setting": "[5]; pH tested after 24 hours", "result": 6.44}, {"measurement": "Appearance after stirring for 24 hours", "setting": "[5]; saturated", "result": "Suspension"}, {"measurement": "Thermodynamic solubility", "setting": "[5]", "result": 3700, "unit": "µg/mL"}, {"measurement": "Thermodynamic solubility", "setting": "[5]; listed as Tromethamine cation", "result": 3700, "unit": "µg/mL"}, {"measurement": "Increase in oral BA vs free acid in rats", "setting": "in vivo [1]", "result": 1.6}, {"measurement": "AUC0-∞", "setting": "in vivo [1]; 4 mg/kg", "result": 21874, "unit": "ng·h/mL"}, {"measurement": "AUCExtr", "setting": "in vivo [1]; 4 mg/kg", "result": 0.930, "unit": "%"}, {"measurement": "AUCinf/D", "setting": "in vivo [1]; 4 mg/kg", "result": 5469, "unit": "kg·ng·h/mL/mg"}, {"measurement": "AUClast", "setting": "in vivo [1]; 4 mg/kg", "result": 21665, "unit": "ng·h/mL"}, {"measurement": "Cmax", "setting": "in vivo [1]; 4 mg/kg", "result": 2787, "unit": "ng/mL"}, {"measurement": "F, bioavailability (BA) in rats", "setting": "in vivo [1]; 4 mg/kg", "result": 12.5, "unit": "%"}, {"measurement": "MRT0-∞", "setting": "in vivo [1]; 4 mg/kg", "result": 5.38, "unit": "h"}, {"measurement": "Tmax", "setting": "in vivo [1]; 4 mg/kg", "result": 4.00, "unit": "h"}, {"measurement": "T1/2", "setting": "in vivo [1]; 4 mg/kg, pH 6.8", "result": 3.39, "unit": "h"}, {"measurement": "Increase in oral BA vs free acid in dogs", "setting": "in vivo [2]", "result": 2.4}, {"measurement": "AUC0-∞", "setting": "in vivo [2]; po, 4 mg/kg", "result": 106528, "unit": "ng·h/mL"}, {"measurement": "AUCExtr", "setting": "in vivo [2]; po, 4 mg/kg", "result": 2.03, "unit": "%"}, {"measurement": "AUCinf/D", "setting": "in vivo [2]; po, 4 mg/kg", "result": 26632, "unit": "kg·ng·h/mL/mg"}, {"measurement": "AUClast", "setting": "in vivo [2]; po, 4 mg/kg", "result": 104381, "unit": "ng·h/mL"}, {"measurement": "Cmax", "setting": "in vivo [2]; po, 4 mg/kg", "result": 20467, "unit": "ng/mL"}, {"measurement": "F, bioavailability (BA) in dogs", "setting": "in vivo [2]; po, 4 mg/kg", "result": 54.4, "unit": "%"}, {"measurement": "MRT0-∞", "setting": "in vivo [2]; po, 4 mg/kg", "result": 5.38, "unit": "h"}, {"measurement": "T1/2", "setting": "in vivo [2]; po, 4 mg/kg", "result": 4.13, "unit": "h"}, {"measurement": "Tmax", "setting": "in vivo [2]; po, 4 mg/kg", "result": 2.67, "unit": "h"}]}]}
